# Species: Rattus norvegicus
# Assay: Open TG-GATES - Regimen: Single
# Format: toxicity, organism-based, Sprague-Dawley
# Parameters: regimen Single, gender Male, age 6 weeks
# Settings: in vivo, po, 0 mg/kg, route gavage, dose level Control; for APTT / Bas / Eos / Fbg / Hb / Ht / Lym / MCH / MCHC / MCV / Mono / Neu / PT / Plat / RBC / Ret / WBC: tissue Blood; for KIDNEY_L / KIDNEY_R / KIDNEY_TOTAL: tissue Kidney; for LIVER: tissue Liver; for A/G / ALP / ALT / AST / BUN / CRE / Ca / Cl / DBIL / GLC / IP / K / LDH / Na / PL / RALB / TBIL / TC / TG / TP / gamma-GTP: tissue Plasma
structure (smiles),measurement,setting,value
CC(C)C(=O)Nc1ccc([N+](=O)[O-])c(C(F)(F)F)c1 [FLUTAMIDE],TERMINAL_BW,3 h,211.8 g
same,APTT,3 h,18.5 s
same,Bas,3 h,0%
same,Eos,3 h,1%
same,Fbg,3 h,211.2 mg/dL
same,Hb,3 h,13.4 g/dL
same,Ht,3 h,39%
same,Lym,3 h,77%
same,MCH,3 h,22.2 pg
same,MCHC,3 h,34.4%
same,MCV,3 h,64.5 fL
same,Mono,3 h,3.6%
same,Neu,3 h,17.4%
same,PT,3 h,12.7 s
same,Plat,3 h,126.5 x10_4/uL
same,RBC,3 h,604.2 x10_4/ul
same,Ret,3 h,8.3%
same,WBC,3 h,99.3 x10_2/uL
same,KIDNEY_L,3 h,1 g
same,KIDNEY_R,3 h,1 g
same,KIDNEY_TOTAL,3 h,1.9 g
same,LIVER,3 h,10 g
same,A/G,3 h,1.7
same,ALP,3 h,1054 IU/L
same,ALT,3 h,39.4 IU/L
same,AST,3 h,69.6 IU/L
same,BUN,3 h,10.8 mg/dL
same,CRE,3 h,0.3 mg/dL
same,Ca,3 h,11 mg/dL
same,Cl,3 h,103.2 meq/L
same,DBIL,3 h,0.3 mg/dL
same,GLC,3 h,193.4 mg/dL
same,IP,3 h,9.1 mg/dL
same,K,3 h,3.9 meq/L
same,LDH,3 h,165.4 IU/L
same,Na,3 h,140 meq/L
same,PL,3 h,176 mg/dL
same,RALB,3 h,3.5 g/dL
same,TBIL,3 h,0.4 mg/dL
same,TC,3 h,83.2 mg/dL
same,TG,3 h,186 mg/dL
same,TP,3 h,5.5 g/dL
same,gamma-GTP,3 h,1.4 IU/L
same,TERMINAL_BW,6 h,207.5 g
same,APTT,6 h,18.8 s
same,Bas,6 h,0%
same,Eos,6 h,0.6%
same,Fbg,6 h,228 mg/dL
same,Hb,6 h,13.7 g/dL
same,Ht,6 h,39.6%
same,Lym,6 h,80%
same,MCH,6 h,21.9 pg
same,MCHC,6 h,34.5%
same,MCV,6 h,63.3 fL
same,Mono,6 h,3.2%
same,Neu,6 h,15%
same,PT,6 h,12.5 s
same,Plat,6 h,115.8 x10_4/uL
same,RBC,6 h,625.8 x10_4/ul
same,Ret,6 h,7.2%
same,WBC,6 h,108.6 x10_2/uL
same,KIDNEY_L,6 h,0.9 g
same,KIDNEY_R,6 h,0.9 g
same,KIDNEY_TOTAL,6 h,1.9 g
same,LIVER,6 h,9 g
same,A/G,6 h,1.8
same,ALP,6 h,1030.8 IU/L
same,ALT,6 h,37.6 IU/L
same,AST,6 h,65.8 IU/L
same,BUN,6 h,8.4 mg/dL
same,CRE,6 h,0.3 mg/dL
same,Ca,6 h,10.7 mg/dL
same,Cl,6 h,102.6 meq/L
same,DBIL,6 h,0.1 mg/dL
same,GLC,6 h,193.6 mg/dL
same,IP,6 h,9.5 mg/dL
same,K,6 h,4.2 meq/L
same,LDH,6 h,140.8 IU/L
same,Na,6 h,139.8 meq/L
same,PL,6 h,157 mg/dL
same,RALB,6 h,3.5 g/dL
same,TBIL,6 h,0.2 mg/dL
same,TC,6 h,89 mg/dL
same,TG,6 h,51.8 mg/dL
same,TP,6 h,5.6 g/dL
same,gamma-GTP,6 h,1 IU/L
same,TERMINAL_BW,9 h,204.9 g
same,APTT,9 h,18.4 s
same,Bas,9 h,0%
same,Eos,9 h,1%
same,Fbg,9 h,209.2 mg/dL
same,Hb,9 h,13.4 g/dL
same,Ht,9 h,39.4%
same,Lym,9 h,76.8%
same,MCH,9 h,21.6 pg
same,MCHC,9 h,34.2%
same,MCV,9 h,63.3 fL
same,Mono,9 h,2.8%
same,Neu,9 h,18.6%
same,PT,9 h,13.2 s
same,Plat,9 h,128.5 x10_4/uL
same,RBC,9 h,621.8 x10_4/ul
same,Ret,9 h,7.7%
same,WBC,9 h,92.7 x10_2/uL
same,KIDNEY_L,9 h,1 g
same,KIDNEY_R,9 h,1 g
same,KIDNEY_TOTAL,9 h,1.9 g
same,LIVER,9 h,8.3 g
same,A/G,9 h,1.6
same,ALP,9 h,866.2 IU/L
same,ALT,9 h,32.6 IU/L
same,AST,9 h,63.4 IU/L
same,BUN,9 h,10.4 mg/dL
same,CRE,9 h,0.3 mg/dL
same,Ca,9 h,10.1 mg/dL
same,Cl,9 h,103.4 meq/L
same,DBIL,9 h,0.072 mg/dL
same,GLC,9 h,204.6 mg/dL
same,IP,9 h,10.8 mg/dL
same,K,9 h,3.7 meq/L
same,LDH,9 h,146.2 IU/L
same,Na,9 h,141.4 meq/L
same,PL,9 h,126.8 mg/dL
same,RALB,9 h,3.3 g/dL
same,TBIL,9 h,0.1 mg/dL
same,TC,9 h,68.6 mg/dL
same,TG,9 h,43 mg/dL
same,TP,9 h,5.3 g/dL
same,gamma-GTP,9 h,0.8 IU/L
same,TERMINAL_BW,24 h,219.3 g
same,APTT,24 h,17.7 s
same,Bas,24 h,0%
same,Eos,24 h,1%
same,Fbg,24 h,206.4 mg/dL
same,Hb,24 h,13.4 g/dL
same,Ht,24 h,40.4%
same,Lym,24 h,82.2%
same,MCH,24 h,21.8 pg
same,MCHC,24 h,33.3%
same,MCV,24 h,65.7 fL
same,Mono,24 h,3.2%
same,Neu,24 h,13.4%
same,PT,24 h,12.6 s
same,Plat,24 h,126.3 x10_4/uL
same,RBC,24 h,615.6 x10_4/ul
same,Ret,24 h,7.7%
same,WBC,24 h,97.9 x10_2/uL
same,KIDNEY_L,24 h,0.9 g
same,KIDNEY_R,24 h,1 g
same,KIDNEY_TOTAL,24 h,1.9 g
same,LIVER,24 h,10.2 g
same,A/G,24 h,1.7
same,ALP,24 h,878.8 IU/L
same,ALT,24 h,39.8 IU/L
same,AST,24 h,68 IU/L
same,BUN,24 h,14.2 mg/dL
same,CRE,24 h,0.4 mg/dL
same,Ca,24 h,10.3 mg/dL
same,Cl,24 h,103.2 meq/L
same,DBIL,24 h,0.084 mg/dL
same,GLC,24 h,212 mg/dL
same,IP,24 h,7.1 mg/dL
same,K,24 h,3.7 meq/L
same,LDH,24 h,136.2 IU/L
same,Na,24 h,140.6 meq/L
same,PL,24 h,135.2 mg/dL
same,RALB,24 h,3.3 g/dL
same,TBIL,24 h,0.1 mg/dL
same,TC,24 h,77.4 mg/dL
same,TG,24 h,62.6 mg/dL
same,TP,24 h,5.4 g/dL
same,gamma-GTP,24 h,0.8 IU/L

# — ChEMBL document CHEMBL3885861, “Open TG-GATES”
